Test results published in PubChem BioAssay (NCI).
Where “and” joins values, the source holds several entries; their conditions need not be identical. Equal values may be shown once.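 Growth conditions: 96-well plates. Treatment: test compound, 48 hours, 5 concentrations. Analysis: linear interpolation between bracketing concentrations; unreached endpoints set to highest concentration. GI50 marks 50% less growth. At the TGI there is no net growth.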

Legend:
Assay in all cases: NCI anticancer screen, dose series, 48 h
SK-MEL-2 melanoma = test system: SK-MEL-2 melanoma
HOP-62 NSCLC = test system: HOP-62 NSCLC
SF-295 CNS = test system: SF-295 CNS
HCT-15 colon = test system: HCT-15 colon
KM12 colon = test system: KM12 colon
SK-MEL-28 melanoma = test system: SK-MEL-28 melanoma
HCC-2998 colon = test system: HCC-2998 colon
MCF7 breast = test system: MCF7 breast
PC-3 prostate = test system: PC-3 prostate
DU-145 prostate = test system: DU-145 prostate

## CC(=O)c1sc(-c2nc(C)c(C(=O)/C=C\c3ccc(/C=C\C(=O)c4sc(-c5nc(C)c(C(C)=O)s5)nc4C)cc3)s2)nc1C
SK-MEL-2 melanoma
  TGI: > 100 µM
HOP-62 NSCLC
  TGI: > 100 µM
SF-295 CNS
  TGI: > 100 µM
HCT-15 colon
  TGI: > 100 µM
KM12 colon
  TGI: > 100 µM
SK-MEL-28 melanoma
  TGI: > 100 µM
HCC-2998 colon
  TGI: > 100 µM

## C[n+]1cc(C(O)c2ccc3c(c2)OCO3)c2ccccc2c1 (stereo unspecified)
SK-MEL-2 melanoma
  TGI: 96.1 µM
HOP-62 NSCLC
  TGI: > 100 µM
SF-295 CNS
  TGI: > 100 µM
HCT-15 colon
  TGI: > 100 µM
KM12 colon
  TGI: > 100 µM
HCC-2998 colon
  TGI: > 100 µM

## CC(C)(C=O)CC(C#N)/C(=N\NC(N)=O)C(=O)Nc1ccccc1C(N)=O (stereo unspecified)
SK-MEL-2 melanoma
  TGI: > 100 µM
HOP-62 NSCLC
  TGI: > 100 µM
SF-295 CNS
  TGI: > 100 µM
HCT-15 colon
  TGI: > 100 µM
KM12 colon
  TGI: > 100 µM
SK-MEL-28 melanoma
  TGI: > 100 µM
HCC-2998 colon
  TGI: > 100 µM

## Cc1cc(C)c(C2[C@H]3C(=O)N(c4ccc(Cc5ccc(N6C(=O)[C@@H]7ON(c8ccccc8)C(c8c(C)cc(C)cc8C)[C@@H]7C6=O)cc5)cc4)C(=O)[C@H]3ON2c2ccccc2)c(C)c1 (stereo partly specified)
SK-MEL-2 melanoma
  TGI: > 100 µM
HOP-62 NSCLC
  TGI: > 100 µM
SF-295 CNS
  TGI: > 100 µM
HCT-15 colon
  TGI: > 100 µM
KM12 colon
  TGI: > 100 µM
SK-MEL-28 melanoma
  TGI: > 100 µM
HCC-2998 colon
  TGI: > 100 µM

## Cc1ccc(S(=O)(=O)NCCNc2nccc(-c3c(-c4ccc(F)cc4)nc4sccn34)n2)cc1
SK-MEL-2 melanoma
  GI50: 7.55 µM
  TGI: 38.2 µM
HOP-62 NSCLC
  GI50: 13.5 µM
  TGI: 29.3 µM
SF-295 CNS
  GI50: 12.6 µM
  TGI: 77.1 µM
MCF7 breast
  GI50: 1.48 µM
  TGI: > 100 µM
HCC-2998 colon
  GI50: > 100 µM
  TGI: > 100 µM

## C[C@@]12CCCc3coc(c31)C(=O)c1cc3c(cc12)C(=O)C=CC3=O
SK-MEL-2 melanoma
  GI50: > 1 µM
  TGI: > 1 µM and 29 µM
HOP-62 NSCLC
  GI50: > 100 µM
  TGI: > 100 µM
SF-295 CNS
  TGI: > 1 µM
HCT-15 colon
  GI50: > 1 µM
  TGI: > 1 µM and 36.7 µM
KM12 colon
  GI50: > 1 µM
  TGI: > 1 µM and 41.8 µM
SK-MEL-28 melanoma
  TGI: > 1 µM
HCC-2998 colon
  GI50: > 1 µM
  TGI: > 1 µM and 69.7 µM

## O=C1c2ccc3c4ccccc4n(Cc4ccccc4)c3c2C(=O)N1c1ccccc1
SK-MEL-2 melanoma
  TGI: 46.5 µM
HOP-62 NSCLC
  TGI: > 57.6 µM
SF-295 CNS
  TGI: 28.3 µM
HCT-15 colon
  TGI: 22.7 µM
KM12 colon
  TGI: 30.6 µM
SK-MEL-28 melanoma
  TGI: 31.3 µM
HCC-2998 colon
  TGI: 37.2 µM

## COc1ccc(-c2oc3cc(O)c(OC)c(O)c3c(=O)c2OC)cc1O
SK-MEL-2 melanoma
  GI50: 0.536 µM
  TGI: > 100 µM
HOP-62 NSCLC
  GI50: 0.271 µM
  TGI: > 100 µM
SF-295 CNS
  GI50: 0.3 µM
  TGI: 2.04 µM
HCT-15 colon
  GI50: 0.0928 µM
  TGI: > 100 µM
MCF7 breast
  GI50: 0.316 µM
  TGI: > 100 µM
KM12 colon
  GI50: 0.437 µM
  TGI: 20.9 µM
PC-3 prostate
  GI50: 4.44 µM
  TGI: > 100 µM
SK-MEL-28 melanoma
  GI50: 0.0775 µM
  TGI: > 100 µM
HCC-2998 colon
  GI50: 1.22 µM
  TGI: > 100 µM

## O=C1[C@H]2ON(c3ccccc3)C(c3ccc(Cl)cc3)[C@H]2C(=O)N1c1ccc(Cc2ccc(N3C(=O)[C@@H]4ON(c5ccccc5)C(c5ccc(Cl)cc5)[C@@H]4C3=O)cc2)cc1 (stereo partly specified)
SK-MEL-2 melanoma
  TGI: > 100 µM
HOP-62 NSCLC
  TGI: > 100 µM
SF-295 CNS
  TGI: > 100 µM
HCT-15 colon
  TGI: > 100 µM
KM12 colon
  TGI: > 100 µM
SK-MEL-28 melanoma
  TGI: > 100 µM
HCC-2998 colon
  TGI: > 100 µM

## COC(=O)CCC(=O)CC1CC(=O)C2CCCN12 (stereo unspecified)
SK-MEL-2 melanoma
  TGI: > 100 µM
HOP-62 NSCLC
  TGI: > 100 µM
SF-295 CNS
  TGI: > 100 µM
KM12 colon
  TGI: > 100 µM
SK-MEL-28 melanoma
  TGI: > 100 µM
HCC-2998 colon
  TGI: > 100 µM

## COc1ccc(C2c3cc(OC)c(OC)cc3C(Cc3ccc([N+](=O)[O-])cc3)C2c2ccc([N+](=O)[O-])cc2)cc1OC (stereo unspecified)
SK-MEL-2 melanoma
  TGI: > 100 µM
HOP-62 NSCLC
  TGI: > 100 µM
SF-295 CNS
  TGI: > 100 µM
HCT-15 colon
  TGI: > 100 µM
KM12 colon
  TGI: > 100 µM
SK-MEL-28 melanoma
  TGI: > 100 µM
HCC-2998 colon
  TGI: > 100 µM

## C1C[OH+]CCNCC[OH+]CC[OH+]CCN1.[Cl-].[Pt+4]
SK-MEL-2 melanoma
  GI50: > 100 µM
  TGI: > 100 µM
HOP-62 NSCLC
  GI50: > 100 µM
  TGI: > 100 µM
SF-295 CNS
  GI50: > 100 µM
  TGI: > 100 µM
HCT-15 colon
  GI50: > 100 µM
  TGI: > 100 µM
KM12 colon
  GI50: > 100 µM
  TGI: > 100 µM
SK-MEL-28 melanoma
  GI50: > 100 µM
  TGI: > 100 µM
HCC-2998 colon
  GI50: > 100 µM
  TGI: > 100 µM

## COc1cc(C)c2c(c1C)OC(=O)c1c(C)c(Cl)c(O)c(C=O)c1O2
HOP-62 NSCLC
  TGI: 47 µM
KM12 colon
  TGI: 35.1 µM
HCC-2998 colon
  TGI: 47.5 µM

## O=c1[nH]c2cc(Cl)ccc2nc1/C(=N\O)C(O)c1ccc(Cl)cc1Cl (stereo unspecified)
HOP-62 NSCLC
  TGI: > 100 µM
SF-295 CNS
  TGI: > 100 µM
HCT-15 colon
  TGI: > 100 µM
KM12 colon
  TGI: > 100 µM
SK-MEL-28 melanoma
  TGI: > 100 µM
HCC-2998 colon
  TGI: > 100 µM

## Cc1cc(NS(=O)(=O)c2ccc(Nc3c4ccccc4nc4c(C(=O)NCCN(C)C)cccc34)cc2)no1
HOP-62 NSCLC
  TGI: 6.57 µM
SF-295 CNS
  TGI: 47.5 µM
HCT-15 colon
  TGI: > 100 µM
KM12 colon
  TGI: > 100 µM
SK-MEL-28 melanoma
  TGI: 48.8 µM
HCC-2998 colon
  TGI: 27 µM

## C[C@]12CC[C@H](O)C[C@H]1CC[C@@H]1[C@@H]2CC[C@]2(C)[C@@H](C3=CC(=O)OC3)CC[C@]12O
SK-MEL-2 melanoma
  TGI: 1.56 µM
HOP-62 NSCLC
  GI50: 0.0313 µM
  TGI: 0.169 µM
SF-295 CNS
  GI50: 0.0292 µM
  TGI: 0.0959 µM
HCT-15 colon
  TGI: 0.316 µM
DU-145 prostate
  GI50: 0.0325 µM
  TGI: 0.146 µM
KM12 colon
  TGI: 3.27 µM
PC-3 prostate
  GI50: 0.178 µM
  TGI: 3.7 µM
SK-MEL-28 melanoma
  TGI: 2.01 µM
HCC-2998 colon
  TGI: 0.675 µM
